As a reminder, the Ki is a dissociation constant, usually derived from enzyme kinetics or from competition with a known ligand.

Like-named read-outs stand apart in the source and are kept apart here. Bounds are passed on as bounds.

Data set [1] is described as follows: Solubility under the conditions of the assay. The following applies: Ellman's assay conditions. As for the experimental part:
(§1) In this study, carboxamides with different triterpenoic backbones (ursolic, oleanolic, maslinic, betulinic, and platanic acids), and various amine residues (Scheme 1), were investigated.
(§2) 3.1 Preparation of the solutions
(§3) Preparation of 50 mM Tris-HCl buffer solutions: Tris(hydroxymethyl)-aminomethane (606 mg) was dissolved in bidestilled water (100 mL) and adjusted with HCl to a pH of 8.0 ± 0.1. Buffers were freshly prepared and stored in the refrigerator. AChE solution 2.005 U/mL: the enzyme (271 U/mg, 0.037 mg) was dissolved in freshly prepared buffer pH 8.0 (5 mL) containing NaN3 (0.98 mg). BChE solution 2.040 U/mL: the enzyme (7.54 U/mg, 1.353 mg) was dissolved in freshly prepared buffer pH 8.0 (5 mL) containing NaN3 (0.98 mg). DTNB solution 3 mM: DTNB (23.8 mg) was dissolved in freshly prepared buffer pH 8.0 (20 mL) containing NaCl (116.8 mg) and MgCl2 (38.0 mg). ATChI solution 15 mM:
(§4) ATChI (43.4 mg) was dissolved in bidestilled water (10 mL). All solutions were stored in Eppendorf caps in the refrigerator or in the freezer, if necessary. The pure compounds were […]
(§5) dissolved in bidistilled water. The final concentrations for the enzymatic assay were obtained by diluting the stock solution with bidistilled water.
(§6) A mixture of the DTNB solution (125 µL), enzyme solution (25 µL) and compounds solutions (25 µL, 3 different concentrations and once blank water) was prepared and incubated at 30 °C for 20 min. The substrate (25 µL, 4 different concentrations) was added to start the enzymatic reaction. The absorbance data (l = 415 nm) was recorded under a controlled temperature of 30 °C for 30 min at 1 min intervals. The substrate concentrations in the test were as follows: […]
(§7) determined as the quotient of the slopes (compound divided by blank) of the linear ranges.
(§8) The used substrate concentration was 0.625 mM. The absorbance data was recorded under a controlled temperature of 30 °C for 10 min.
A general note: In Ellman's method for cholinesterases, released thiocholine reacts with DTNB.

Data set [2] addresses acetylcholinesterase (AChE, electric eel) (Electrophorus electricus, UniProt O42275). The conditions noted are these: mean ± SE.
Source text: as §1
(§9) A TECAN SpectraFluorPlus working in the kinetic mode and measuring the absorbance at λ = 415 nm was used for the enzymatic studies. Acetylcholinesterase (from Electrophorus electricus), 5,5′-dithiobis-(2-nitrobenzoic acid) (DTNB) and acetylthiocholine iodide were purchased from Sigma. Butyrylcholinesterase (from equine serum) was purchased from Fluka. Preparation of the solutions, assay procedure, as well as molecular modeling conditions can be found in the Supplementary Materials.
as §2, §3, §4, §5, §6, §7, §8

The target in data set [3] is T1, butyrylcholinesterase (BChE, equine serum) (Equus caballus, UniProt P81908).
T1 construct: Butyrylcholinesterase (from equine serum) was purchased from Fluka; purchased Fluka; host or cells: equine serum
Description: Ellman's assay, butyrylcholinesterase inhibition. The format is biochemical. The following applies: for Type of Inhibition / Ki′ (uncompetitive inhibition) / Ki: BChE, equine serum; for Ki′ (uncompetitive inhibition) / Ki: Ellman's assay; for Ki: read-out: Ki (competitive inhibition); for Grade of inhibition in% BChE: mean ± SE.
Source text: as §1, §9, §2, §3, §4, §5, §6, §7, §8

T1 sequence (P81908 whole entry): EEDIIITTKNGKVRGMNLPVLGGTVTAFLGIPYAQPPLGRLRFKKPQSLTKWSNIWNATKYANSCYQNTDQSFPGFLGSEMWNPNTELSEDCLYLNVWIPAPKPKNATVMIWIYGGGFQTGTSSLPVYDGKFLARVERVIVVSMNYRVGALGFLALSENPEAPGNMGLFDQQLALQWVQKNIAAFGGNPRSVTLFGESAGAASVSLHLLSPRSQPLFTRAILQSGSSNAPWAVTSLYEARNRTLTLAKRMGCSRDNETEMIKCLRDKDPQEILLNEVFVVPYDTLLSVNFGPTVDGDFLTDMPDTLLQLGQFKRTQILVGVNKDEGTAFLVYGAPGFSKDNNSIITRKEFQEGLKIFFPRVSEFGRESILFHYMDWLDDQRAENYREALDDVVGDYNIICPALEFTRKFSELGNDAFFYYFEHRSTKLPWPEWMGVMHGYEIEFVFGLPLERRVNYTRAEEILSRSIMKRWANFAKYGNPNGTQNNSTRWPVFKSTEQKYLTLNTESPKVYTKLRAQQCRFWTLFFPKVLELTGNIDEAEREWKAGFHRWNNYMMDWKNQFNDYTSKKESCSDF
Chain of acetylcholinesterase (AChE, electric eel) (O42275 24-633): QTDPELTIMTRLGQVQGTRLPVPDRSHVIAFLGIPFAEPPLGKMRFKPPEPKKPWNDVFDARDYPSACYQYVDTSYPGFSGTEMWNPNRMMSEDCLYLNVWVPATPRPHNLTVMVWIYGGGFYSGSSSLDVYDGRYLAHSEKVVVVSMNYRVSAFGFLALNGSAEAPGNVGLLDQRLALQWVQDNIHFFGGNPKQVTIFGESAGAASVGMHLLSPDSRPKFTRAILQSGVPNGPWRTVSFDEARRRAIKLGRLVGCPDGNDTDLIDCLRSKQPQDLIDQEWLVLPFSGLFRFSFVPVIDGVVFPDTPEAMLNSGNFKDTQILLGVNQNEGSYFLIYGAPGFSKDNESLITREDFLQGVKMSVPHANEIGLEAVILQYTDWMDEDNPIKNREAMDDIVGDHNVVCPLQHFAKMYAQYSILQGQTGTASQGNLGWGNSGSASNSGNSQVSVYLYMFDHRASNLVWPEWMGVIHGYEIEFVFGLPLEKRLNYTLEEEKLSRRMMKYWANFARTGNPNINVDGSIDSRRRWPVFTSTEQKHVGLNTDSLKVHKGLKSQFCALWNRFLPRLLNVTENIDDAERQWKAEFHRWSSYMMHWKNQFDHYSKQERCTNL

Turning to `CC(=O)OC1CCC2(C)C(CCC3(C)C2CC=C2C4CC(C)(C)CCC4(C(=O)NCCN(C)C)CCC23C)C1(C)C` (stereo not drawn) [Compound 22, (3β)-N-[2-(Dimethylamino)-ethyl]-3-acetyloxy-olean-12-en-28-amide], the “solubility under the conditions of the assay” value (shortened to “solubility”) in data set [1] is “n.sol”.

In the case of `CC(=O)O[C@H]1CC[C@@]2(C)C(CC[C@]3(C)C2CC=C2C4[C@@H](C)[C@H](C)CC[C@]4(C(=O)NCCN4CCCCC4)CC[C@]23C)C1(C)C` (stereo partly drawn) [Compound 41], the “solubility” value in data set [1] is “n.sol”.

Turning to `CC(=O)OC1CC2(C)C(CCC3(C)C2CC=C2C4CC(C)(C)CCC4(C(=O)NCCN(C)C)CCC23C)C(C)(C)C1OC(C)=O` (stereo not drawn) [Compound 23, (2α,3β)-N-[2-(Dimethylamino)ethyl]-2,3-diacetyloxy-olean-12-en-28-amide], the “solubility” value in data set [1] is “n.sol”.

Regarding `CC1(C)CCC2(C(=O)NCCN3CCCC3)CCC3(C)C(=CCC4C5(C)CCC(O)C(C)(C)C5CCC43C)C2C1` (stereo not drawn) [Compound 37, (3β)-N-(2-Pyrrolidin-1-ylethyl)-3-hydroxy-olean-12-en-28-amide], the “Grade of inhibition in% AChE” value in data set [2] (c = 10 µM) is given as 10.04 ± 1.70%. For the same compound, in data set [3], the “Type of Inhibition” value is reported as “mixed-type”, the “Ki′ (uncompetitive inhibition)” value is > 50000 nM and the inhibitory constant (Ki) came out at 550 ± 20 nM. The “Grade of inhibition in% BChE” value in data set [3] (c = 10 µM) is on record as 74.50 ± 0.93%.

In the case of `C=C(C)C1CC[C@]2(C(=O)NCCN(C)C)CC[C@]3(C)C(CCC4[C@@]5(C)CC[C@H](OC(C)=O)C(C)(C)C5CC[C@]43C)C12` (stereo partly drawn) [Compound 24], the “Grade of inhibition in% AChE” value in data set [2] (c = 10 µM) is recorded as 13.10 ± 1.32%. Further, in data set [3], the “Type of Inhibition” value is given as “mixed-type”. For the same compound, the “Grade of inhibition in% BChE” value in data set [3] (c = 10 µM) is given as 67.75 ± 0.69%.

For the compound `CC(=O)OC1CCC2(C)C(CCC3(C)C2CC=C2C4CC(C)(C)CCC4(C(=O)NCCN)CCC23C)C1(C)C` (stereo not drawn) [Compound 12, (3β)-N-(2-Aminoethyl)-3-acetyloxy-olean-12-en-28-amide], the “Grade of inhibition in% AChE” value in data set [2] (c = 30 µM) is listed as 31.69 ± 0.04%. Moreover, the “Grade of inhibition in% BChE” value in data set [3] (c = 30 µM) amounted to 57.54 ± 0.93%.

`CC1(C)CCC2(C(=O)NCCN3CCCC3)CCC3(C)C(=CCC4C5(C)CC(O)C(O)C(C)(C)C5CCC43C)C2C1` (stereo not drawn) [Compound 38, (2α,3β)-N-(2-Pyrrolidin-1-ylethyl)-2,3-dihydroxy-olean-12-en-28-amide]: the “Grade of inhibition in% AChE” value in data set [2] (c = 30 µM) is 23.33 ± 0.22%. In data set [3], the “Type of Inhibition” value is given as “mixed-type”, the “Ki′ (uncompetitive inhibition)” value stood at 14150 ± 2420 nM and the Ki was determined as 2060 ± 30 nM. The “Grade of inhibition in% BChE” value in data set [3] (c = 30 µM) is on record as 77.49 ± 0.10%.

Values taken from paper PMC6429507, “Triterpene-Based Carboxamides Act as Good Inhibitors of Butyrylcholinesterase” (Molecules, 2019).
